Assay results published in patent US20220177511A1, “SERIES OF HALOGENATED TETRACYCLIC TRITERPENE DERIVATIVES AND THEIR PREPARATION AND APPLICATION” (SHANGHAI KING-X BIOTECH CO., LTD, priority 2019, published 2022).
Where two headings read alike, the source gives them in different places.

Assay: Plasma pharmacokinetics after single intragastric administration in rats
Assay type: in vivo, SD rat
Conditions: for AUC0-t / AUC(0-inf) / CL/F / Cmax / Tmax / half-life / MRT inf / Vd/F: single gavage 10 mg/kg, Mean ± SD; for bioavailability: SD, single gavage 10 mg/kg vs intravenous 2 mg/kg; for MRT inf: read-out: MRT0-∞; for Vd/F: read-out: Vz/F
Procedure: Strain: SD rat; Gender: half male and female. Weight: about 200-250 g. Source: Shanghai Slac Laboratory Animal Co., Ltd. Laboratory Animal Production License No.: SOCK (Shanghai) 2017-0005. Laboratory Animal Use License Certificate number: SYXK (Shanghai) 2014-0018. Breeding: constant temperature purification and ventilation animal room, 20-26° C., free food and water, humidity 40-70%, light for 12 h.
Route A: single oral administration. Volume: calculated according to 10 mL/kg body weight. Preparation: an appropriate amount of compound 2 is added to a small amount of 0.5% CMC-Na and grinded, and another portion of 0.5% CMC-Na was added to form a suspension.
12 SD rats were divided into 2 groups, 6 rats in each group, […]. Fasting for 12 h before administration, free drinking water. The doses of 10 mg/kg were administered as a single gavage, and the doses of 2 mg/kg were administered as a single intravenous injection. About 100 μL orbital blood was collected before administration, 3 min, 10 min, 20 min, 30 min, 1 h, 2 h, 3 h, 4 h, 6 h, 8 h, 11 h, and 24 h after administration. For intravenous administration, orbital blood was collected before administration, 3 min, 8 min, 15 min, 30 min, 1 h, 2 h, 3 h, 4 h, 6 h, 8 h, 11 h, 24 h after injection. The blood was anticoagulated with 1% heparin, centrifuged at 8000 rpm for 4 min, and the plasma was separated. Store at −20° C. High concentration samples were diluted with blank plasma. 2.1.4 Determination method of plasma samples 2.1.4.1 Instrument (LC-MS/MS)
Liquid chromatography system: Ultimate3000 liquid chromatography system (including Ultimate3000 ternary infusion pump, Ultimate3000 column oven, Ultimate3000 autosampler and Ultimate3000 vacuum degasser), Dionex Corporation. MS/MS system: 4000 Q-Trap tandem mass spectrometer with electrospray ionization source (ESI source), AB Company
Column: Athena C18-WP 100A (2.1×50 mm, 5 μm); Injection volume: 10 μL; Mobile phase: A: acetonitrile; C: 0.05% ammonia, gradient elution (see table below); Flow rate: 0.3 mL/min
The ion source is electrospray ionization source (ESI), the drying gas (N2) temperature is 500° C., the electrospray voltage is −4500 V, the detection method is negative ion detection, the scanning method is the […] (MRM) method and the scanning time is 0.15 s. The mass spectrometry parameters are as follows:
50 μL of rat whole blood was added with 2.5 μL of internal standard working solution (250 ng/mL tolbutamide). 150 μL of acetonitrile was used to precipitate the proteins. The sample was centrifuged at 13,000 rpm and 4° C. for 5 min. The upper organic phase was taken and filtered with a 0.22 μM microporous membrane, which was then analyzed by LC-MS/MS. […]

[1] = both sexes, rat, plasma, po, all rats (♂ and ♀)
[2] = female, rat, plasma, po, rats ♀

## CC(C)(O)[C@@H]1CC[C@](C)([C@H]2[C@@H](O)C[C@@]3(C)[C@@H]4C[C@H](O)[C@H]5C(C)(C)C(F)(F)CC[C@@]56C[C@@]46CC[C@]23C)O1 [Compound 2, (2aR,3R,4S,5aS,5bS,7S,7aR,11aR,12aS)-9,9-difluoro-3-((2R,5S)-5-(2-hydroxypropan-2-yl)-2-methyltetrahydrofuran-2-yl)-2a,5a,8,8-tetramethyltetradecahydro-1H,12H-cyclopenta[a]cyclopropa[e]phenanthrene-4,7-diol]
All rats (♂ and ♀), 10 mg/kg
  AUC0-t: 1.916 µg·h/mL
Both sexes, rat, plasma, po, all rats (♂ and ♀), read-out: F (mean absolute bioavailability)
  bioavailability: 22%
[1]
  AUC(0-inf): 2.45 ± 3.07 µg·h/mL
  CL/F: 8.38 L/h/kg
  Cmax: 0.323 µg/mL
  Tmax: 2.17 h
  half-life: 2.89 h
  MRT inf: 4.4 ± 1.28 h
  Vd/F: 27.9 ± 19 L/kg
Both sexes, rat, plasma, po, all rats (♂ and ♀), read-out: AUC0-t
  AUC0-t: 1.92 µg·h/mL
female, rat, plasma, po, rats ♀, read-out: F (absolute bioavailability)
  bioavailability: 28.4%
[2]
  AUC(0-inf): 4.04 ± 3.99 µg·h/mL
  CL/F: 4.27 L/h/kg
  Cmax: 0.459 ± 0.277 µg/mL
  Tmax: 2.33 ± 0.58 h
  half-life: 3.64 ± 2.54 h
  MRT inf: 5.01 ± 1.71 h
  Vd/F: 15.8 ± 9.24 L/kg
female, rat, plasma, po, rats ♀, read-out: AUC0-t
  AUC0-t: 3 ± 2.43 µg·h/mL
male, rat, plasma, po, rats ♂, read-out: F (absolute bioavailability)
  bioavailability: 15.6%
male, rat, plasma, po, rats ♂
  AUC(0-inf): 0.859 ± 0.297 µg·h/mL
  CL/F: 12.5 L/h/kg
  Cmax: 0.187 ± 0.037 µg/mL
  Tmax: 2 ± 1 h
  half-life: 2.14 ± 0.64 h
  MRT inf: 3.78 ± 0.24 h
  Vd/F: 40 ± 19.5 L/kg
male, rat, plasma, po, rats ♂, read-out: AUC0-t
  AUC0-t: 0.831 µg·h/mL
